Measured values from PubChem BioAssay AID1996.
In brackets after ≈: the same amount, converted by molar mass.

Details: buffer; pH 7.4; 200.0 µM

Q: With `COc1ccc(F)cc1S(=O)(=O)N1CCN(c2ccccn2)CC1` as the compound, how does the solubility kinetic read?
A: Its solubility kinetic is 6.1 µg/mL (≈ 17.4 µM).

Q: Which solubility kinetic does the source give for `O=C(Nc1ccc2c(c1)CCC2)Nc1ccccc1Cl` here?
A: The solubility kinetic was under 0.3 µg/mL.

Q: For `Cc1onc(-c2ccccc2)c1NC(=O)N(CCC#N)Cc1ccccc1`, which solubility kinetic is on record?
A: The solubility kinetic was 45.4 µg/mL (≈ 126 µM).

Q: Which solubility kinetic does the source give for `Nc1nc(NCCc2ccccc2)nc(NCc2ccccc2)c1[N+](=O)[O-]` here?
A: The solubility kinetic was 0.2 µg/mL (≈ 0.549 µM).

Q: With `Nc1ncnc(Nc2ccccc2Cl)n1` as the compound, how does the solubility kinetic read?
A: The solubility kinetic was 32.8 µg/mL (≈ 148 µM).

Q: For `CCOc1ccc(NC(=O)c2nsc(Cl)c2Cl)cc1`, which solubility kinetic is on record?
A: Its solubility kinetic is 1.3 µg/mL (≈ 4.1 µM).

Q: Which solubility kinetic does the source give for `CCCCNC(=O)c1cc2cccc([N+](=O)[O-])c2[nH]1` here?
A: The solubility kinetic was 27.3 µg/mL (≈ 104 µM).

Q: Which solubility kinetic does the source give for `O=C(NCC1CCCO1)c1cc(-c2ccccc2)nc2ccccc12` (stereo not given) here?
A: Its solubility kinetic is over 49.9 µg/mL.

Q: With `CC(c1ccccc1)n1c(CCCO)nc2ccccc21` (stereo not given) as the compound, how does the solubility kinetic read?
A: Its solubility kinetic is over 42.1 µg/mL.

Q: Which solubility kinetic does the source give for `Cc1ccc(C)c(C(=O)CCC(=O)NCc2ccc(Cl)cc2)c1` here?
A: The solubility kinetic was 10.9 µg/mL (≈ 33 µM).

Q: For `CC(C)(C)C1CCC(=NOC(=O)c2ccc(F)cc2)CC1` (stereo not given), which solubility kinetic is on record?
A: Its solubility kinetic is 1.3 µg/mL (≈ 4.46 µM).

Q: Which solubility kinetic does the source give for `O=C(Nc1ccccc1N1CCCC1)c1ccc2ccccc2c1` here?
A: The solubility kinetic was 2.7 µg/mL (≈ 8.53 µM).

Q: With `CC(C)[C@H](NC(=O)c1ccccc1F)C(=O)NCCc1ccccc1` as the compound, how does the solubility kinetic read?
A: Its solubility kinetic is 26.4 µg/mL (≈ 77.1 µM).

Q: Which solubility kinetic does the source give for `O=[N+]([O-])c1cc(F)c(N2CCCC2)cc1Br` here?
A: The solubility kinetic was 1.6 µg/mL (≈ 5.53 µM).

Q: Which solubility kinetic does the source give for `O=C(CN1C(=O)COc2ccccc21)NCC1CCCO1` (stereo not given) here?
A: The solubility kinetic was over 43.5 µg/mL.

Q: With `CCOC1=C/C(=C/c2c(N)n3oc(C)cc3nc2=O)C=CC1=O` as the compound, how does the solubility kinetic read?
A: Its solubility kinetic is 11.9 µg/mL (≈ 38 µM).

Q: For `O=C(COC(=O)C1=COCCO1)Nc1cc(C(F)(F)F)ccc1Cl`, which solubility kinetic is on record?
A: The solubility kinetic was 12.4 µg/mL (≈ 33.9 µM).

Q: Which solubility kinetic does the source give for `CCn1c(C(=O)NC2CCC(C)CC2)cc2sccc21` (stereo not given) here?
A: Its solubility kinetic is 0.7 µg/mL (≈ 2.41 µM).

Q: For `COc1ccc(CCn2cnc3c([nH]c4ccccc43)c2=O)cc1`, which solubility kinetic is on record?
A: Its solubility kinetic is under 0.2 µg/mL.

Q: With `Cc1cccc(CC(=O)NC2CCCCCC2)c1` as the compound, how does the solubility kinetic read?
A: The solubility kinetic was 30.5 µg/mL (≈ 124 µM).

Q: Which solubility kinetic does the source give for `Cc1cccc(C2C3=C(CCCC3=O)N=C3c4ccccc4C(=O)C32)c1` (stereo not given) here?
A: The solubility kinetic was 2.3 µg/mL (≈ 6.74 µM).

Q: With `CCOC(=O)Cc1csc(NC(=O)Cc2ccc(C)cc2)n1` as the compound, how does the solubility kinetic read?
A: Its solubility kinetic is 45.2 µg/mL (≈ 142 µM).

Q: For `O=C(c1cccnc1)N1CCN(c2ccc3ccccc3n2)CC1`, which solubility kinetic is on record?
A: The solubility kinetic was 39.3 µg/mL (≈ 123 µM).

Q: For `CC(C(=O)NC1CCCCCC1)c1ccc([N+](=O)[O-])cc1` (stereo not given), which solubility kinetic is on record?
A: Its solubility kinetic is 7.1 µg/mL (≈ 24.5 µM).

Q: For `Cc1ccc2cc3cc(C(=O)NC4CC4)oc3nc2c1`, which solubility kinetic is on record?
A: Its solubility kinetic is 1.3 µg/mL (≈ 4.88 µM).

Q: Which solubility kinetic does the source give for `CC(NC(=O)NC(=O)c1ccc(Cl)cc1)c1ccccc1` (stereo not given) here?
A: The solubility kinetic was 0.4 µg/mL (≈ 1.32 µM).

Q: Which solubility kinetic does the source give for `O=C(NCN1CCOCC1)c1cnccn1` here?
A: The solubility kinetic was 30.6 µg/mL (≈ 138 µM).

Q: For `CC(=O)c1c(C)[nH]c(C(=O)/C(C#N)=C/c2cccc(C)c2)c1C`, which solubility kinetic is on record?
A: The solubility kinetic was 39.5 µg/mL (≈ 129 µM).

Q: Which solubility kinetic does the source give for `COc1ccc2nc(NC(=O)c3ccccc3F)sc2c1` here?
A: The solubility kinetic was 0.5 µg/mL (≈ 1.65 µM).

Q: Which solubility kinetic does the source give for `O=c1c2ccccc2nc2n1CCS2(=O)=O` here?
A: Its solubility kinetic is 34.6 µg/mL (≈ 146 µM).

Q: For `Cc1ccccc1NC(=S)N1CCCCCC1`, which solubility kinetic is on record?
A: Its solubility kinetic is over 37.3 µg/mL.

Q: For `Cc1ccc(C)c(CN2C(=O)COc3ccccc32)c1`, which solubility kinetic is on record?
A: Its solubility kinetic is 2.8 µg/mL (≈ 10.5 µM).

Q: With `COc1ccc(C=O)cc1CN1C(=O)c2ccccc2C1=O` as the compound, how does the solubility kinetic read?
A: Its solubility kinetic is 36.8 µg/mL (≈ 125 µM).

Q: For `O=C(NCc1ccc(Cl)cc1)c1cc2ccccc2oc1=O`, which solubility kinetic is on record?
A: Its solubility kinetic is under 0.7 µg/mL.

Q: With `Cc1onc(-c2ccccc2)c1C(O)c1ccc(F)cc1` (stereo not given) as the compound, how does the solubility kinetic read?
A: The solubility kinetic was over 42.5 µg/mL.

Q: Which solubility kinetic does the source give for `Cc1ccc(NC(=O)/C(=C\c2ccccc2)NC(=O)c2ccco2)cc1` here?
A: The solubility kinetic was 4.7 µg/mL (≈ 13.6 µM).

Q: For `Cc1cc(NC(=O)c2ccno2)no1`, which solubility kinetic is on record?
A: Its solubility kinetic is over 29 µg/mL.

Q: Which solubility kinetic does the source give for `CN(c1ccccc1)S(=O)(=O)c1ccc(C(=O)N2CCN(c3ccccc3F)CC2)cc1` here?
A: Its solubility kinetic is 3.6 µg/mL (≈ 7.94 µM).

Q: For `Cc1csc(=O)n1CCC(=O)NCc1ccc(F)cc1`, which solubility kinetic is on record?
A: The solubility kinetic was over 44.2 µg/mL.

Q: Which solubility kinetic does the source give for `O=C(CC(=O)c1ccccc1)Nc1ccccn1` here?
A: Its solubility kinetic is over 36 µg/mL.

Q: With `COc1cccc(CC(=O)OCC(=O)NC2CCCCCC2)c1` as the compound, how does the solubility kinetic read?
A: Its solubility kinetic is over 47.9 µg/mL.

Q: With `Cc1[nH]c(=O)[nH]c(=O)c1S(=O)(=O)Nc1ccc(F)c([N+](=O)[O-])c1` as the compound, how does the solubility kinetic read?
A: The solubility kinetic was over 51.6 µg/mL.

Q: With `CN(C)S(=O)(=O)c1ccc(NC(=S)NC(=O)C2CCC2)cc1` as the compound, how does the solubility kinetic read?
A: Its solubility kinetic is 12.5 µg/mL (≈ 36.6 µM).

Q: With `O=C(CNC(=O)c1ccccc1F)NCc1ccccn1` as the compound, how does the solubility kinetic read?
A: Its solubility kinetic is over 43.1 µg/mL.

Q: Which solubility kinetic does the source give for `O=C(Nc1nc2ccccc2c(=O)s1)c1ccc(F)cc1Cl` here?
A: Its solubility kinetic is 0.9 µg/mL (≈ 2.69 µM).

Q: With `Cc1ccc(NS(=O)(=O)c2ccc(C(=O)NCCN3CCOCC3)cc2)cc1.Cl` as the compound, how does the solubility kinetic read?
A: The solubility kinetic was over 66 µg/mL.

Q: Which solubility kinetic does the source give for `O=C(NC1CCSc2ccccc21)c1cccc(OC(F)F)c1` (stereo not given) here?
A: Its solubility kinetic is 4.5 µg/mL (≈ 13.4 µM).

Q: For `COc1ccc(/C=C/C2=CCN(C)CC2)cc1.Cl`, which solubility kinetic is on record?
A: The solubility kinetic was over 39.9 µg/mL.

Q: For `COCCNC(=O)CN1C(=O)NC2(CCCCCC2)C1=O`, which solubility kinetic is on record?
A: Its solubility kinetic is over 44.6 µg/mL.

Q: With `CCN(CC)C(=O)Cn1cc(C(=O)C2CC2)c2ccccc21` as the compound, how does the solubility kinetic read?
A: The solubility kinetic was over 44.8 µg/mL.

Q: With `O=C(Nc1ccccc1)c1ccccc1OS(=O)(=O)c1ccccc1` as the compound, how does the solubility kinetic read?
A: The solubility kinetic was 48 µg/mL (≈ 136 µM).

Q: Which solubility kinetic does the source give for `O=[N+]([O-])c1ccccc1OCc1nc(-c2cccs2)no1` here?
A: The solubility kinetic was 0.9 µg/mL (≈ 2.97 µM).

Q: Which solubility kinetic does the source give for `O=C1CC(c2cccs2)Cc2nc(NC(=O)C3CC3)ncc21` (stereo not given) here?
A: Its solubility kinetic is 45.5 µg/mL (≈ 145 µM).

Q: With `O=C(N/N=C\c1ccc(O)c([N+](=O)[O-])c1)C1COc2ccccc2O1` (stereo not given) as the compound, how does the solubility kinetic read?
A: The solubility kinetic was over 51.5 µg/mL.

Q: Which solubility kinetic does the source give for `Cc1ccc(C(=O)CCC(=O)NC2CCCC(C)C2C)cc1` (stereo not given) here?
A: Its solubility kinetic is 17.4 µg/mL (≈ 57.7 µM).

Q: For `CCCNC(=O)Cn1sc2nc(C)cc(C)c2c1=O`, which solubility kinetic is on record?
A: Its solubility kinetic is over 41.9 µg/mL.

Q: For `CC1CN(C(=S)Nc2ccc(Cl)cc2)CC(C)O1` (stereo not given), which solubility kinetic is on record?
A: The solubility kinetic was over 42.7 µg/mL.

Q: Which solubility kinetic does the source give for `CC(NC(=O)c1cccs1)c1ccc(Br)cc1` (stereo not given) here?
A: The solubility kinetic was 3.8 µg/mL (≈ 12.2 µM).

Q: Which solubility kinetic does the source give for `Nc1cc([N+](=O)[O-])cc2oc(-c3ccccc3)cc12` here?
A: Its solubility kinetic is under 0.3 µg/mL.

Q: With `COC(=O)c1ccc(-n2c(C)cc(C(=O)COC(=O)C3=COCCO3)c2C)cc1` as the compound, how does the solubility kinetic read?
A: Its solubility kinetic is 3.7 µg/mL (≈ 9.26 µM).
